For three compounds, Ki results are on record in BindingDB's records for PubMed 8996185 (SynthÉLabo Recherche, 1997).

“And” between values parts separate entries of the source, which are not always exact repeats. Equal values may be shown once. Where a name gives a salt, the structure may show the parent alone. A value given as a limit tells only on which side of the number the result lay.

For test [1], the target named is Gamma-aminobutyric acid type B receptor subunit 1 (UniProt Q9Z0U4).
In test [2] the target is Adenosine receptor A2a (Rattus norvegicus, UniProt P30543).
Sequence of Adenosine receptor A2a (P30543 whole entry): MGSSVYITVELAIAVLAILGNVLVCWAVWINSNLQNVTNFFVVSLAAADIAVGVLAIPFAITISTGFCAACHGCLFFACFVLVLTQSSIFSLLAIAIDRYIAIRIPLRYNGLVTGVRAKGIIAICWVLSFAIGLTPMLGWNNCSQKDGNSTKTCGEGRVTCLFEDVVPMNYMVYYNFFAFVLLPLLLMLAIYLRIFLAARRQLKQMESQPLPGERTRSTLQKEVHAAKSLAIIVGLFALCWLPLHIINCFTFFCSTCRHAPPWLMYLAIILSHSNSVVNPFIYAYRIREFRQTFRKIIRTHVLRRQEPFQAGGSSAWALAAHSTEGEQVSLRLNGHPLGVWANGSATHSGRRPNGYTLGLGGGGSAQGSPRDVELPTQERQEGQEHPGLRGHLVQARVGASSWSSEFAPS
In test [3] the target is T1, Adenosine receptor A1 (Rattus norvegicus, UniProt P25099).
T1 sequence (P25099 whole entry): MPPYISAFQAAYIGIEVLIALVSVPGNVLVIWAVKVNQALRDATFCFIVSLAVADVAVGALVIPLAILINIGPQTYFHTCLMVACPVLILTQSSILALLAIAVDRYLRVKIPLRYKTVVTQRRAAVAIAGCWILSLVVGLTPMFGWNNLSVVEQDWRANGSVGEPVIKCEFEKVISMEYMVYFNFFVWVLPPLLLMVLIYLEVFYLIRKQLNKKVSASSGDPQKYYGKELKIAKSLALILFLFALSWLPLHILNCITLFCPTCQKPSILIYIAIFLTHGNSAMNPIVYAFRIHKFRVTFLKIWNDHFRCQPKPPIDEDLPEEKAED

In test [4] the target is 5-hydroxytryptamine receptor 3A (Rattus norvegicus, UniProt P35563).
Test [5] concerns the target 5-hydroxytryptamine receptor 4 (Cavia porcellus, UniProt O70528).
Test [6] addresses T2, Type-1 angiotensin II receptor (Oryctolagus cuniculus, UniProt P34976).
T2 sequence (P34976 whole entry): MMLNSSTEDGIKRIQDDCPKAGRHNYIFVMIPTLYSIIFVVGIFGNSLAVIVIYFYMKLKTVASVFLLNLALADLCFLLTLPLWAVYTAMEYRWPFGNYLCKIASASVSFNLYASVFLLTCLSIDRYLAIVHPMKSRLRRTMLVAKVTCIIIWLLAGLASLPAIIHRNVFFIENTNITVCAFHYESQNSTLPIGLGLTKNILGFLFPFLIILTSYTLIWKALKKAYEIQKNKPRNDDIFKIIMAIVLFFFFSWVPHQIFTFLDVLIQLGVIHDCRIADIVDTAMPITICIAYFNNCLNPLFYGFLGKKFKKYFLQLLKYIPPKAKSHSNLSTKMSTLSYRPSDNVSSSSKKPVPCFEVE

Test [7] concerns the target T3, Type-2 angiotensin II receptor (Rattus norvegicus, UniProt P35351).
T3 sequence (P35351 whole entry): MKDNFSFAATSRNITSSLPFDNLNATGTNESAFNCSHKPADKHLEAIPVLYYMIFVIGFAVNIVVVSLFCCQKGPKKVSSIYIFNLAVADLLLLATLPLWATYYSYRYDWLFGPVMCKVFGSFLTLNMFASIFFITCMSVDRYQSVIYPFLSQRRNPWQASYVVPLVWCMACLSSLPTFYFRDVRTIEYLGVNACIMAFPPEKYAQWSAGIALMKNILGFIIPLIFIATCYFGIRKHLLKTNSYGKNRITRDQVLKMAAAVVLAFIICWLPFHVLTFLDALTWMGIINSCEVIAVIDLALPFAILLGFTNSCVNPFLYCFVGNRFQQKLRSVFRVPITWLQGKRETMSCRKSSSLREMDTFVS

In test [8] the target is Glutamate receptor 3 (Rattus norvegicus, UniProt P19492).
Sequence of Glutamate receptor 3 (P19492 whole entry): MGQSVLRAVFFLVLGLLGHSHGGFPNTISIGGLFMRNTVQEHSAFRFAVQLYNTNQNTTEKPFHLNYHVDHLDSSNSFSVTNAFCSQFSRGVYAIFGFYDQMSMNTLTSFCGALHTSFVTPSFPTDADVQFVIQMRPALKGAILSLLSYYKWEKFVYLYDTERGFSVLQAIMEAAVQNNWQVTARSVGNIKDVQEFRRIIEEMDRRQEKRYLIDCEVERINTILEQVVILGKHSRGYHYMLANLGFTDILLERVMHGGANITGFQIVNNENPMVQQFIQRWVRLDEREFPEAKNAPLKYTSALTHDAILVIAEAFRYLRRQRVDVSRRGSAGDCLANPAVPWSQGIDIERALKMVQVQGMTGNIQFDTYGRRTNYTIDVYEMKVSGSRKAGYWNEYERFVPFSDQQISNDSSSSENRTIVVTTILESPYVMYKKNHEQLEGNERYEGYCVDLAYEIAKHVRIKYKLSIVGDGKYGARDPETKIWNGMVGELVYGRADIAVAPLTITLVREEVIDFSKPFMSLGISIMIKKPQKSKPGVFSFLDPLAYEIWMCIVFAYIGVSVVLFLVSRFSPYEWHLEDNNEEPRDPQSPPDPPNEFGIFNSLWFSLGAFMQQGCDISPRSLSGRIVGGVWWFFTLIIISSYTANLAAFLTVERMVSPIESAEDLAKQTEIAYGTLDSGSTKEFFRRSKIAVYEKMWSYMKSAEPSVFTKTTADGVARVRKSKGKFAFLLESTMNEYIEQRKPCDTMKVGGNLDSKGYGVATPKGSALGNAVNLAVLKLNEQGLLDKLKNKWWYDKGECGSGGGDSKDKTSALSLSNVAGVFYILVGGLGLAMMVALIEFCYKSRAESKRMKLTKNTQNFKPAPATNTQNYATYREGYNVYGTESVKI
Test [9] has as its target Glutamate receptor ionotropic, kainate 1 (Rattus norvegicus, UniProt P22756).
Test [10] concerns the target T4, Glycine amidinotransferase, mitochondrial (Rattus norvegicus, UniProt P50442).
T4 sequence (P50442 whole entry): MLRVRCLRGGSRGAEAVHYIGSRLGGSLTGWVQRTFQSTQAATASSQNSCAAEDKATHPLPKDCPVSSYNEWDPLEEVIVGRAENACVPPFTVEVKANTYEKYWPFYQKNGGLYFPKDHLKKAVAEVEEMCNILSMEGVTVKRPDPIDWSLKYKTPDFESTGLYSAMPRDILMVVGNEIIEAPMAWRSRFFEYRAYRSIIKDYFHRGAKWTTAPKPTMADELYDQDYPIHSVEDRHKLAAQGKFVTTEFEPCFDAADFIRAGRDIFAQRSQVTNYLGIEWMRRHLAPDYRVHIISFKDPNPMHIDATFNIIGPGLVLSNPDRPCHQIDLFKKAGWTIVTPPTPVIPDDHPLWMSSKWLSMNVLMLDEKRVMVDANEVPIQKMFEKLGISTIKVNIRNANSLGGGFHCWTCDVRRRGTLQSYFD

For test [11], the target named is T5, Glycine receptor subunit alpha-1 (Rattus norvegicus, UniProt P07727).
T5 sequence (P07727 whole entry): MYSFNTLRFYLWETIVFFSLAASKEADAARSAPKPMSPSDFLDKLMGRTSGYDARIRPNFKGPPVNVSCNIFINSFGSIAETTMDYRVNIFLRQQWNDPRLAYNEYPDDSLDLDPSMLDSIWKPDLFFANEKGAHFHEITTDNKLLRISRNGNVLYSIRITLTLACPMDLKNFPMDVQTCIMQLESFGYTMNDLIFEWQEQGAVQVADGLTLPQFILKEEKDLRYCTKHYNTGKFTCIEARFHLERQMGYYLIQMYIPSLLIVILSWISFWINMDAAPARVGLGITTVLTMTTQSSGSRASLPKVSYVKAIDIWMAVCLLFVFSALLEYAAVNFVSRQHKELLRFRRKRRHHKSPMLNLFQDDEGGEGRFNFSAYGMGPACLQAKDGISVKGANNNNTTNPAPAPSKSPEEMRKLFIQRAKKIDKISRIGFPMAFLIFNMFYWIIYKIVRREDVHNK

Test [12] concerns the target Nischarin (Rattus norvegicus, UniProt Q4G017).
In test [13] the target is Beta-2 adrenergic receptor (Rattus norvegicus, UniProt P10608).
Sequence of Beta-2 adrenergic receptor (P10608 whole entry): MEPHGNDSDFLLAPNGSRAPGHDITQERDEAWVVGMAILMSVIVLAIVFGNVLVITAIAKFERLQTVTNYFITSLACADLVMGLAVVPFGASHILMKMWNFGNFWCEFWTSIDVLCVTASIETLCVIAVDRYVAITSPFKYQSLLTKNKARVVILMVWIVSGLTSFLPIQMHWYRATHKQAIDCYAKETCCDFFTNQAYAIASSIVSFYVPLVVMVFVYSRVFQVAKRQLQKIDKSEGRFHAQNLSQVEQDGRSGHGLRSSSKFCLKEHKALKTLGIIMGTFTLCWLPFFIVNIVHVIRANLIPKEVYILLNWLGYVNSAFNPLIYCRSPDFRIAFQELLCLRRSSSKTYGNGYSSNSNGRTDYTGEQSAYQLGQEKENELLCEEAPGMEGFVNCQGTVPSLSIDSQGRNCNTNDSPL
Test [14] has as its target Voltage-dependent L-type calcium channel subunit alpha-1C (Rattus norvegicus, UniProt P22002).
In test [15] the target is D(3) dopamine receptor (Bos taurus, UniProt F1N454).
Sequence of D(3) dopamine receptor (F1N454 whole entry): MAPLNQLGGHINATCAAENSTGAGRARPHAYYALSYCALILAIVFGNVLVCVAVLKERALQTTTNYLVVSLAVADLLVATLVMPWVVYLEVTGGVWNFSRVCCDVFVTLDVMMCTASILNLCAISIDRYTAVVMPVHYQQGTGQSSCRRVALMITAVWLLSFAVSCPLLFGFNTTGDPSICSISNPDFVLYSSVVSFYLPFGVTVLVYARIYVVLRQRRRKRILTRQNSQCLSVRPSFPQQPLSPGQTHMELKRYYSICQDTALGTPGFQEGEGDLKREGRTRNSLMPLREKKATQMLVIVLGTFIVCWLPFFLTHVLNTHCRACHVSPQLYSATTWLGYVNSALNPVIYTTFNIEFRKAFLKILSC
For test [16], the target named is Glutamate receptor ionotropic, NMDA 1 (Rattus norvegicus, UniProt P35439).
Test [17] has as its target Sigma non-opioid intracellular receptor 1 (Mus musculus, UniProt O55242).
For test [18], the target named is 5-hydroxytryptamine receptor 2A (Rattus norvegicus, UniProt P14842).
Test [19] has as its target Sodium-dependent dopamine transporter (Rattus norvegicus, UniProt P23977).
Test [20] has as its target Histamine H1 receptor (Cavia porcellus, UniProt P31389).
Test [21] has as its target Gamma-aminobutyric acid (GABA) B receptor 1 (Rattus norvegicus, UniProt Q6MFX8).
Test [22] has as its target 5-hydroxytryptamine receptor 1A (Rattus norvegicus, UniProt P19327).
For test [23], the target named is Alpha-1B adrenergic receptor (Rattus norvegicus, UniProt P15823).
Test [24] has as its target D(2) dopamine receptor (Rattus norvegicus, UniProt P61169).
Test [25] addresses 5-hydroxytryptamine 1D receptor (Bos taurus, UniProt Q8MI13).
For test [26], the target named is 5-hydroxytryptamine receptor 1B (Rattus norvegicus, UniProt P28564).
Test [27] deals with Sodium channel protein type 10 subunit alpha (Rattus norvegicus, UniProt Q62968).
The target of test [28] is Gamma-aminobutyric acid receptor subunit alpha-1 (Rattus norvegicus, UniProt P62813).
Test [29] addresses 5-hydroxytryptamine receptor 2C (Sus scrofa, UniProt G7ZKZ7).
Test [30] has as its target Alpha-2C adrenergic receptor (Rattus norvegicus, UniProt P22086).
Test [31] deals with Muscarinic acetylcholine receptor M2 (Rattus norvegicus, UniProt P10980).

Sequence of Glutamate receptor ionotropic, kainate 1 (P22756 whole entry): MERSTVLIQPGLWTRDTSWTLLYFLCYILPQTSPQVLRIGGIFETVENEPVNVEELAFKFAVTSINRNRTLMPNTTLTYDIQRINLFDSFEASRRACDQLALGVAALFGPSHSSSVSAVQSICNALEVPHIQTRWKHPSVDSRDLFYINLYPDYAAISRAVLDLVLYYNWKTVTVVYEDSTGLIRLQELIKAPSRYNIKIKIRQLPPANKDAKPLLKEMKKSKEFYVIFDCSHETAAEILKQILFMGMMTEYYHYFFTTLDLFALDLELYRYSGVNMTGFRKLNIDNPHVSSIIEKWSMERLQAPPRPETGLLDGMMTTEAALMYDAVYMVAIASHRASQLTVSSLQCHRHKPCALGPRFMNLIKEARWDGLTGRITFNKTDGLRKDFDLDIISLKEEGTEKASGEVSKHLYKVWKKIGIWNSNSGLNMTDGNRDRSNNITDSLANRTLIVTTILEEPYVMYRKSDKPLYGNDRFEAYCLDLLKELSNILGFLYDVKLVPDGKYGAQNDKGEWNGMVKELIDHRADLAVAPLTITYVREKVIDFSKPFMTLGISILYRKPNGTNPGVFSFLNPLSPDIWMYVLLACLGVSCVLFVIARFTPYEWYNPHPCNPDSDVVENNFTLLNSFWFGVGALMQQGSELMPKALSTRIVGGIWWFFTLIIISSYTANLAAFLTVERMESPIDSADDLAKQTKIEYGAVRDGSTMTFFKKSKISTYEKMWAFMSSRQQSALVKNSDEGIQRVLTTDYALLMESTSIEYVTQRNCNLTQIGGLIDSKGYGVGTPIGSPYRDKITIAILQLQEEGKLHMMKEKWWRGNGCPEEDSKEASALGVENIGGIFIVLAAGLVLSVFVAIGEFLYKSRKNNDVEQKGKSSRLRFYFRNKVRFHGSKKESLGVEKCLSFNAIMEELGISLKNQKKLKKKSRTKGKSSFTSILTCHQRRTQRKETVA
Sequence of 5-hydroxytryptamine receptor 4 (O70528 whole entry): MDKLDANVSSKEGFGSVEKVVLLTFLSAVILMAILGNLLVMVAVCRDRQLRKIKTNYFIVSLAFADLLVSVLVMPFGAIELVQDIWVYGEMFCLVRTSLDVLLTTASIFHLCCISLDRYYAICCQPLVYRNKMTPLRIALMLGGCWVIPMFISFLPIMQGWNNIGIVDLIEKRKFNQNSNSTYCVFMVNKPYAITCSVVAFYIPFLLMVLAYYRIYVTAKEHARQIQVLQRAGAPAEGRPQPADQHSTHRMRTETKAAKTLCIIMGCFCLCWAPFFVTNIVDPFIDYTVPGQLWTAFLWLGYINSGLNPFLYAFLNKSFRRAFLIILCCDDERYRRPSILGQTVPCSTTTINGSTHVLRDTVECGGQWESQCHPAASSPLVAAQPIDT
Sequence of Nischarin (Q4G017 whole entry): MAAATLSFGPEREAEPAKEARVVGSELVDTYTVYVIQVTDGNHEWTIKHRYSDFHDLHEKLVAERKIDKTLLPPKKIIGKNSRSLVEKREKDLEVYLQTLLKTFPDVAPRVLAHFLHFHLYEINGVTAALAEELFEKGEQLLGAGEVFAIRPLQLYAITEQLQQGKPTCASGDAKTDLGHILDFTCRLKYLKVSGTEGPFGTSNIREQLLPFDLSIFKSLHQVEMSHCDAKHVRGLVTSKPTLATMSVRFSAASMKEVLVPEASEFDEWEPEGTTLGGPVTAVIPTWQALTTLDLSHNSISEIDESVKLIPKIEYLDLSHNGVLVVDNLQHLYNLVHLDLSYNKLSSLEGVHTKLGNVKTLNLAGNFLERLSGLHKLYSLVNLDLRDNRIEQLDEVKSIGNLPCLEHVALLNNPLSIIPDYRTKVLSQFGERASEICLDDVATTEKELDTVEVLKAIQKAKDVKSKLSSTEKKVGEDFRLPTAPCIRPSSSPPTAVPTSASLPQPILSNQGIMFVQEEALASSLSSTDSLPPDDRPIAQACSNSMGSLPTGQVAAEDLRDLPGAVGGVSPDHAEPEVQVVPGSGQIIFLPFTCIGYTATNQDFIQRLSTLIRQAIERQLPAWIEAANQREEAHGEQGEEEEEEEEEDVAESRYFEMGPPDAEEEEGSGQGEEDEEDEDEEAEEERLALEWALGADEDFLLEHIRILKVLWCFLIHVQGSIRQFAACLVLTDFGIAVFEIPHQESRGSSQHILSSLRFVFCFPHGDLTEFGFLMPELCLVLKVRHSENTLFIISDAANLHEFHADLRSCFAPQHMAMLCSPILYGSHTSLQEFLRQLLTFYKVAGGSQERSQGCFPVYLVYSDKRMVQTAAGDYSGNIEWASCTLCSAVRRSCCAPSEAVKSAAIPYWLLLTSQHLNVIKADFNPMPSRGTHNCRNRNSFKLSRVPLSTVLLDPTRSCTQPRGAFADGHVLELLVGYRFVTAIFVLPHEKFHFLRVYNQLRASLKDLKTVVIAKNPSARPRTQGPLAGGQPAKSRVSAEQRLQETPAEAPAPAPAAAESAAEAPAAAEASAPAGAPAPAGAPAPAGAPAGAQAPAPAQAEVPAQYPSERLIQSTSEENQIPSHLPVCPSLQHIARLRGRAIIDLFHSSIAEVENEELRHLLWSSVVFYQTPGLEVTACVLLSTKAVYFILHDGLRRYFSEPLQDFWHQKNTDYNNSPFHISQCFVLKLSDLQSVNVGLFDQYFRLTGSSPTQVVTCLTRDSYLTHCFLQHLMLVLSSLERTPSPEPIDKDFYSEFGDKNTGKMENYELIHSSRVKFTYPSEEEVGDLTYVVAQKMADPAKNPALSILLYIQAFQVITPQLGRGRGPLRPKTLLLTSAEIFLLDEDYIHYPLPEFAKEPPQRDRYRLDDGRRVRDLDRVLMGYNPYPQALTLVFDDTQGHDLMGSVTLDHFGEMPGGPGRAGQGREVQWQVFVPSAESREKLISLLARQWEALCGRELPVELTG
Sequence of 5-hydroxytryptamine 1D receptor (Q8MI13 whole entry): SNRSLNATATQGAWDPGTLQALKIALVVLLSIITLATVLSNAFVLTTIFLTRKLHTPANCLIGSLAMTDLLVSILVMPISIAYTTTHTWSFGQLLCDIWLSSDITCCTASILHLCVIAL

In general, Ki refers to a dissociation constant, usually derived from enzyme kinetics or from competition with a known ligand. `O=C(CCCN1CCC(O)(c2ccc(Cl)cc2)CC1)c1ccc(F)cc1` [4-[4-(4-Chloro-phenyl)-4-hydroxy-piperidin-1-yl]-1-(4-fluoro-phenyl)-butan-1-one;propionate(HCl)]: the Ki in test [1], in test [2], in test [3], in test [4], in [5] and in test [6] was over 10 µM each time. The Ki in test [7], in test [8], in test [9], in [10], in [11] and in test [12] was over 10 µM each time. Moreover, the Ki in [13] is over 10 µM.

For `CN1CCN(C2=c3ccccc3=Nc3ccc(Cl)cc3N2)CC1` [6-chloro-10-(4-methylpiperazin-1-yl)-2,9-diazatricyclo[9.4.0.0^{3,8}]pentadeca-1,3(8),4,6,10,12,14-heptaene], the inhibitory constant (Ki) in test [1], in test [2], in test [3], in test [5], in test [6] and in [7] was over 10 µM in each case. Moreover, the Ki in test [14] was over 10 µM; in test [15], 0.88 µM; in test [8] it was over 10 µM; in test [9] it was over 10 µM; in test [16] it was > 10 µM and 5 µM; in test [10], over 10 µM. For the same compound, the Ki was over 10 µM in [11], over 10 µM in test [12], 6.4 µM in test [17] and over 10 µM in test [13].

In the case of `CCN1CCCC1CNC(=O)c1cc(S(=O)(=O)CC)c(N)cc1OC` (centres undefined) [NSC_2159], the Ki was over 10 µM in [2]; 2 µM in [18]; over 10 µM in test [19]; over 10 µM in test [20]; over 10 µM in test [21]; over 10 µM in [22]. In addition, the Ki in test [23] was over 10 µM; in [24], 0.021 µM; in test [3] it was over 10 µM; in [25], over 10 µM; in [26] it was over 10 µM; in test [27], over 10 µM. The Ki in test [28] was over 10 µM; in [29], over 10 µM; in test [4] it was over 10 µM; in test [5], over 10 µM; in test [30], 1.6 µM; in test [6], over 10 µM. Also, the Ki in test [7] was over 10 µM; in [14], over 10 µM; in test [31], over 10 µM; in test [15], 0.0029 µM; in test [8] it was over 10 µM; in [9], over 10 µM. Besides, the Ki in [16], in test [10], in [11], in test [12], in test [17] and in test [13] was over 10 µM in each case.
